Source: ChEMBL document CHEMBL1154486, “Synthesis and evaluation of in vitro anti-tuberculosis activity of N-substituted glycolamides” (2009)
Converted amounts (≈) assume the structure as drawn.

The compounds below were run on Mycobacterium tuberculosis (assay: Antimycobacterial activity against Mycobacterium tuberculosis H37Rv ATCC 27294 by microplate alamar blue assay).
Type: functional

Compound | MIC [µg/mL]
CCC(CO)NC(=O)CO (centres undefined) | 29.5 (≈ 200 µM)
O=C(CO)N1CCCCC1 | 38.8 (≈ 271 µM)
O=C(CO)N1CCOCC1 | 13.8 (≈ 94.7 µM)
O=C(CO)NCCc1ccccc1 | 74 (≈ 413 µM)
O=C(CO)NCCO | 87.5 (≈ 735 µM)
O=C(CO)N1CCCC(O)C1 (centres undefined) | 60 (≈ 377 µM)
O=C(CO)N1CCN(C(=O)CO)CC1 | 15.8 (≈ 77.9 µM)
O=C(CO)N1CCCC1 | 25.5 (≈ 197 µM)
O=C(CO)N1CCC(O)CC1 | 33.2 (≈ 209 µM)
CC(CO)(CO)NC(=O)CO | 67.5 (≈ 414 µM)
O=C(CO)N1CCN(CCO)CC1 | 14.2 (≈ 75.7 µM)
O=C(CO)NN1CCOCC1 | 57 (≈ 356 µM)
O=C(CO)N(CCO)CCO | 12.5 (≈ 76.6 µM)
CC[C@@H](CO)NCCN[C@@H](CC)CO [ETHAMBUTOL] | 5 (≈ 24.5 µM)
